# Reference: ChEMBL document CHEMBL4002618, “Anticomplement triterpenoids from the roots of Ilex asprella” (2017)
# The source made the active and inactive calls. The calls are words filed in the database; no cut-off is given here.
# Key:
# Erythrocyte [1] = assay: Anticomplement activity in sheep erythrocytes assessed as inhibition of hemolysis by classical pathway after 30 mins of compound treatment in normal human serum with C1q-depleted sera; assay type: functional, cell-based; conditions: Ovis aries
# Erythrocyte [2] = assay: Anticomplement activity in sheep erythrocytes assessed as concentration required for 50% hemolytic inhibition by classic pathway preincubated for 10 mins with guinea pig serum followed by erythrocyte addition measured after 30 mins by spectrophotometer; assay type: functional, Ovis aries
# Erythrocyte [3] = assay: Anticomplement activity in sheep erythrocytes assessed as inhibition of hemolysis by classical pathway after 30 mins of compound treatment in normal human serum with C2-depleted sera; assay type: functional, cell-based; conditions: Ovis aries
# Erythrocyte [4] = assay: Anticomplement activity in New Zealand White rabbit erythrocytes assessed as concentration required for 50% hemolytic inhibition by alternative pathway preincubated for 10 mins with normal human serum followed by erythrocyte addition measured after 30 mins by spectrophotometer; assay type: functional, Oryctolagus cuniculus
# Erythrocyte [5] = assay: Anticomplement activity in sheep erythrocytes assessed as inhibition of hemolysis by classical pathway after 30 mins of compound treatment in normal human serum with C9-depleted sera; assay type: functional, cell-based; conditions: Ovis aries
# Erythrocyte [6] = assay: Anticomplement activity in sheep erythrocytes assessed as inhibition of hemolysis by classical pathway after 30 mins of compound treatment in normal human serum with C4-depleted sera; assay type: functional, cell-based; conditions: Ovis aries
# Erythrocyte [7] = assay: Anticomplement activity in sheep erythrocytes assessed as inhibition of hemolysis by classical pathway after 30 mins of compound treatment in normal human serum with C5-depleted sera; assay type: functional, cell-based; conditions: Ovis aries
# Erythrocyte [8] = assay: Anticomplement activity in sheep erythrocytes assessed as inhibition of hemolysis by classical pathway after 30 mins of compound treatment in normal human serum with C3-depleted sera; assay type: functional, cell-based; conditions: Ovis aries
Structure (SMILES),Activity (Erythrocyte [1]),Activity (Erythrocyte [2]),Activity (Erythrocyte [3]),Activity (Erythrocyte [4]),Activity (Erythrocyte [5]),Activity (Erythrocyte [6]),Activity (Erythrocyte [7]),Activity (Erythrocyte [8])
C=C1[C@@H](O)[C@H](O)C[C@]2(C)[C@H]3CC=C4[C@@H]5CC(C)(C)CC[C@]5(C(=O)O)CC[C@@]4(C)[C@]3(C)CC[C@@H]12,Active,0.09 mg/mL,Active,0.308 mg/mL,Active,–,–,–
CC1(C)CC[C@]2(C(=O)O)CC[C@]3(COC(=O)/C=C/c4ccc(O)cc4)C(=CC[C@@H]4[C@@]5(C)CC[C@H](OC(=O)/C=C/c6ccc(O)cc6)C(C)(C)[C@@H]5CC[C@]43C)[C@@H]2C1,Active,0.072 mg/mL,inactive,0.159 mg/mL,inactive,Active,Active,Active
